In one assay the test system is HCT-116 cells. The experiment in a line: HCT-116 cell viability MTS assay. The format is cell-based. To be noted: Homo sapiens. As for the experimental part:
HCT-116 cell viability was examined by the MTS assay (Promega, Madison, Wis., USA). 2000 HCT-116 cells in 100 μL McCoy's 5a medium were seeded in each well of a 96-well plate. After 96-h incubation with a test compound, the cells were incubated with 20 μL of a MTS/PMS mixture (MTS/PMS ratio: 20: 1) for 2 h at 37° C. in a humidified incubator with 5% CO2 to allow viable cells to convert the tetrazolium salt (MTS) into formazan. The amount/concentration of formazan, which indicates the number of live cells, was determined by measuring the absorbance at 490 nm using a PerkinElmer Victor2 plate reader (PerkinElmer, Shelton, Cont., USA).
(Tetrazolium assays rely on reduction of a dye to a coloured formazan, in cell work by metabolically active cells.)

The target in assay [1] is T1, GST-tAurora A (123-401aa) fusion protein (Homo sapiens, UniProt O14965).
T1 construct: GST-tAurora A (123-401aa) fusion protein; made in house; host or cells: Sf9 insect cells (baculovirus, pBacPAK8)
T1 sequence (O14965 123-401): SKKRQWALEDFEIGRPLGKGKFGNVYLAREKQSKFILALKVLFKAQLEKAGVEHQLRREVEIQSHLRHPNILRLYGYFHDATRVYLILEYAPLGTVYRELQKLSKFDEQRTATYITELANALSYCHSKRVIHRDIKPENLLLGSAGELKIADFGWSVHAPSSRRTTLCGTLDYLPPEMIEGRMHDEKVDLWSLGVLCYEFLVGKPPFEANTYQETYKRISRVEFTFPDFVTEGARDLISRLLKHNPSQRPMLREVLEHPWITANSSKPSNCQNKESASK
The experiment in a line: Aurora Kinase A luminescent kinase assay. The format is biochemical. Conditions: IC50 (concentration of a test compound at which activity of 50% of Aurora A is inhibited). As for the experimental part:
The Aurora A catalytic domain with an N-terminal GST tag was constructed in pBacPAK8 plasmid and expressed in sf9 cells. […] To concentrate GST-tAurora A, buffer was replaced with Tris buffer (100 mM Tris (pH 7.5), 300 mM NaCl, 1 mM EDTA, 4 mM DTT) using Amicon ultra-15 (MWCO:30K, Millipore) to 2.4 mg/ml. After the addition of equal volume of glycerol and 0.04% Triton X-100, the proteins were stored aliquoted at −80° C.
Briefly, a test compound, enzyme, substrate-tetra(LRRWSLG), DTT and ATP were dissolved in Aur buffer (50 mM Tris-HCl pH 7.4, 10 mM NaCl, 10 mM MgCl2, and 100 μg/ml BSA) individually before the assay. […] 5 μM ATP (5 μl), 1 mM DTT (5 μl) and 0.1 mM tetra(LRRWSLG) peptide substrate (5 μl) were added into the reactions of test compounds and GST-tAurora A. The reactions were incubated at 37° C. for 90 min. 50 μl of Kinase-Glo Plus Reagent (V3771, Promega) was added into the reactions, followed by the incubation at 25° C. for 20 min.

Where [2] appears, read: read-out: IC50 (concentration of a test compound which causes 50% of the cell death), HCT-116, 96-h incubation, MTS.

Our source for the IC50 values is patent publication US8138194B2, “Fused bicyclic pyrimidine compounds as aurora kinase inhibitors” (National Health Research Institutes, priority 2008, dated 2012).

Values joined by “and” are separate entries in the source; they are usually repeats but may differ in a detail not shown here. Equal values may be shown once. Read-outs that look alike come from different tables or passages of the source. Some results are limits rather than exact numbers.

As for `O=C(Nc1ccccc1)Nc1ccc(CCNc2ncnc3oc(-c4ccccc4)c(-c4ccccc4)c23)cc1` [Compound 6, 1-(4-(2-(5,6-diphenylfuro[2,3-d]pyrimidin-4-ylamino)ethyl)phenyl)-3-phenylurea], the IC50 in the assay on HCT-116 cells (setting [2]) was 100 to 900 nM.
On to `O=C(Nc1ccc(CCNc2ncnc3oc(-c4ccccc4)c(-c4ccccc4)c23)cc1)Nc1cccc(F)c1` [Compound 14], for which the IC50 in assay [1] is 45 to 400 nM and < 1000 nM; with HCT-116 cells (setting [2]), 100 to 900 nM.
For the compound `COc1ccc(-c2oc3ncnc(NCCc4ccc(NC(=O)Nc5ccccc5)cc4)c3c2-c2ccc(OC)cc2)cc1` [Compound 23], the IC50 in assay [1] is 45 to 400 nM and < 1000 nM; with HCT-116 cells (setting [2]), 100 to 900 nM.
In the case of `O=C(Nc1ccccc1)Nc1ccc(CCNc2ncnc3oc(-c4ccc(O)cc4)c(-c4ccc(O)cc4)c23)cc1` [Compound 24], the IC50 was below 1000 nM in assay [1] and 100 to 900 nM with HCT-116 cells (setting [2]).
On to `O=C(Nc1ccccc1)Nc1ccc(CCNc2ncnc3sc4c(c23)CCCC4)cc1` [Compound 42, N-phenyl-N′-4-[2-(5,6,7,8-tetrahydrobenzo[4,5]thieno[2,3-d]pyrimidin-4-ylamino)ethyl]phenylurea], for which the IC50 is 45 to 400 nM and < 1000 nM in assay [1]; 100 to 900 nM in the assay on HCT-116 cells (setting [2]).
With `O=C(Nc1ccccc1)Nc1ccc(CCNc2ncnc3oc(-c4ccccc4)c(Br)c23)cc1` [Compound 57], the IC50 in assay [1] is 45 to 400 nM and < 1000 nM; with HCT-116 cells (setting [2]), 100 to 900 nM.
Take `CC(=O)Nc1ccc(-c2c(-c3ccccc3)oc3ncnc(NCCc4ccc(NC(=O)Nc5ccccc5)cc4)c23)cc1` [Compound 58]: the IC50 in assay [1] is below 1000 nM; in the assay on HCT-116 cells (setting [2]), 100 to 900 nM.
With `O=C(Nc1ccccc1)Nc1ccc(CCNc2ncnc3oc(-c4ccccc4)c(-c4ccc(O)cc4)c23)cc1` [Compound 60], the IC50 in assay [1] is below 1000 nM; with HCT-116 cells (setting [2]), 100 to 900 nM.
Consider `O=C(Nc1ccc(F)cc1)Nc1ccc(CCNc2ncnc3oc(-c4ccccc4)c(-c4ccccc4)c23)cc1` [Compound 61], for which the IC50 in assay [1] is 45 to 400 nM and < 1000 nM; with HCT-116 cells (setting [2]) it was 100 to 900 nM.
Regarding `O=C(Nc1ccccc1)Nc1ccc(CCNc2ncnc3oc(-c4ccccc4)cc23)cc1` [Compound 79], the IC50 in assay [1] was 45 to 400 nM and < 1000 nM; in the assay with HCT-116 cells (setting [2]), 100 to 900 nM.
As for `CC(=O)Nc1cccc(-c2c(-c3ccccc3)oc3ncnc(NCCc4ccc(NC(=O)Nc5ccccc5)cc4)c23)c1` [Compound 80], the IC50 in assay [1] is 45 to 400 nM and < 1000 nM; with HCT-116 cells (setting [2]) it was 100 to 900 nM.
In the case of `C[Si](C)(C)C#Cc1c(-c2ccccc2)oc2ncnc(NCCc3ccc(NC(=O)Nc4ccccc4)cc3)c12` [Compound 81], the IC50 in assay [1] is below 1000 nM.
Same read-out and setting: the figure for `O=C(Nc1ccc(CCNc2ncnc3oc(-c4ccccc4)c(-c4ccccc4)c23)cc1)Nc1cccc(F)c1F` [Compound 91] is 45 to 400 nM and < 1000 nM; for `O=C(Nc1ccc(CCNc2ncnc3oc(-c4ccccc4)c(-c4ccccc4)c23)cc1)Nc1c(F)cccc1F` [Compound 94] it is below 1000 nM.
On the same count and under the same terms, the figure for `COc1ccc(NC(=O)Nc2ccc(CCNc3ncnc4oc(-c5ccccc5)c(-c5ccccc5)c34)cc2)cc1OC` [Compound 95] is below 1000 nM; for `O=C(Nc1ccc(CCNc2ncnc3oc(-c4ccccc4)c(-c4ccccc4)c23)cc1)Nc1ccccc1[N+](=O)[O-]` [Compound 97] it is 45 to 400 nM and < 1000 nM; for `Cc1ccc(NC(=O)Nc2ccc(CCNc3ncnc4oc(-c5ccccc5)c(-c5ccccc5)c34)cc2)cc1` [Compound 98] it is 45 to 400 nM and < 1000 nM.
For `CN(C)c1ccc(NC(=O)Nc2ccc(CCNc3ncnc4oc(-c5ccccc5)c(-c5ccccc5)c34)cc2)cc1` [Compound 100], in assay [1], the IC50 was below 1000 nM.
On to `CCOC(=O)c1c(-c2ccccc2)oc2ncnc(NCCc3ccc(NC(=O)Nc4ccccc4)cc3)c12` [Compound 107], for which, in assay [1], the IC50 is below 1000 nM.
As for `CN1CCN(Cc2ccc(NC(=O)Nc3ccc(CCNc4ncnc5oc(-c6ccccc6)c(-c6ccccc6)c45)cc3)cc2)CC1` [Compound 118], the IC50 in assay [1] was below 1000 nM.
As to `CN(C)Cc1cccc(NC(=O)Nc2ccc(CCNc3ncnc4oc(-c5ccccc5)c(-c5ccccc5)c34)cc2)c1` [Compound 119], in assay [1], the IC50 is < 1000 nM and 45 to 400 nM.
In the case of `CN1CCN(Cc2cccc(NC(=O)Nc3ccc(CCNc4ncnc5oc(-c6ccccc6)c(-c6ccccc6)c45)cc3)c2)CC1` [Compound 122], in assay [1], the IC50 is below 1000 nM.
As for `O=C(Nc1ccc(CCNc2ncnc3oc(-c4ccccc4)c(-c4ccccc4)c23)cc1)Nc1ccccc1CN1CCCCC1` [Compound 124], the IC50 in assay [1] was below 1000 nM.
In turn, `CN1CCN(Cc2ccccc2NC(=O)Nc2ccc(CCNc3ncnc4oc(-c5ccccc5)c(-c5ccccc5)c34)cc2)CC1` [Compound 126] showed an IC50 in assay [1] below 1000 nM.
As to `O=C(Nc1ccc(CCNc2ncnc3oc(-c4ccccc4)c(-c4ccccc4)c23)cc1)Nc1ccccn1` [Compound 146], the IC50 in assay [1] is 45 to 400 nM and < 1000 nM.
`O=C(Nc1ccc(CCNc2ncnc3oc(-c4ccccc4)c(-c4ccccc4)c23)cc1)Nc1cnccn1` [Compound 151]: the IC50 in assay [1] is below 1000 nM.
Compound `Cc1cc(NC(=O)Nc2ccc(CCNc3ncnc4oc(-c5ccccc5)c(-c5ccccc5)c34)cc2)no1` [Compound 160] registered an IC50 in assay [1] below 1000 nM.
In the case of `Cc1cc(NC(=O)Nc2ccc(CCNc3ncnc4oc(-c5ccccc5)c(-c5ccccc5)c34)cc2)on1` [Compound 161], the IC50 in assay [1] was < 1000 nM and 45 to 400 nM.
For the compound `Cc1csc(NC(=O)Nc2ccc(CCNc3ncnc4oc(-c5ccccc5)c(-c5ccccc5)c34)cc2)n1` [Compound 163], the IC50 in assay [1] was < 1000 nM and 45 to 400 nM.
`Cc1cnc(NC(=O)Nc2ccc(CCNc3ncnc4oc(-c5ccccc5)c(-c5ccccc5)c34)cc2)s1` [Compound 164] came in with an IC50 in assay [1] below 1000 nM.
In turn, `O=C(Nc1ccccc1)Nc1ccc(CCNc2ncnc3oc4c(c23)CCCC4)cc1` [Compound 173] returned an IC50 in assay [1] below 1000 nM.
On the same count and under the same terms, the figure for `O=C(Nc1ccc(CCNc2ncnc3oc(-c4ccccc4)c(-c4ccccc4)c23)cc1)Nc1ccccc1Br` [Compound 197] is below 1000 nM.
`CN(C)CCNC(=O)Nc1ccc(CCNc2ncnc3oc(-c4ccccc4)c(-c4ccccc4)c23)cc1` [Compound 198]: the IC50 in assay [1] is 45 to 400 nM and < 1000 nM.
With `O=C(NCCO)Nc1ccc(CCNc2ncnc3oc(-c4ccccc4)c(-c4ccccc4)c23)cc1` [Compound 199], the IC50 in assay [1] is 45 to 400 nM and < 1000 nM.
The same measure, in the same setting: the figure for `CCOC(=O)CNC(=O)Nc1ccc(CCNc2ncnc3oc(-c4ccccc4)c(-c4ccccc4)c23)cc1` [Compound 200] is below 1000 nM; for `O=C(Nc1ccc(CCNc2ncnc3oc(-c4ccccc4)c(-c4ccccc4)c23)cc1)NC1CC1` [Compound 201] it is < 1000 nM and 45 to 400 nM; for `O=C(Nc1ccccc1)Nc1ccc(CCNc2ncnc3occ(-c4ccccc4)c23)cc1` [Compound 203] it is < 1000 nM and 45 to 400 nM.
In the case of `CN(C)CCOc1ccc(-c2cc3c(NCCc4ccc(NC(=O)Nc5ccccc5)cc4)ncnc3o2)cc1` [Compound 207], the IC50 in the assay with HCT-116 cells (HCT-116, 96 h, read-out: IC50 (concentration of a test compound which causes 50% of the cell death), HCT-116, 96-h incubation, MTS) lay in the range of 100 to 900 nM.
With `CCOC(=O)N1CCc2c(sc3ncnc(NCCc4ccc(NC(=O)Nc5ccccc5)cc4)c23)C1` [Compound 208], the IC50 in assay [1] is < 1000 nM and 45 to 400 nM.
Same read-out and setting: the figure for `O=C(NCCCCl)Nc1ccc(CCNc2ncnc3oc(-c4ccccc4)c(-c4ccccc4)c23)cc1` [Compound 227] is below 1000 nM.
Still for that read-out and setting: the figure for `O=C(Nc1ccc(CCNc2ncnc3oc(-c4ccccc4)c(Cl)c23)cc1)c1ccccc1` [Compound 228] is below 1000 nM; for `O=C(Nc1ccc(CCNc2ncnc3oc(-c4ccccc4)cc23)cc1)c1ccccc1` [Compound 229] it is below 1000 nM.
In assay [1], `O=C(Nc1ccc(CCNc2ncnc3oc(-c4ccccc4)cc23)cc1)Nc1cccnc1` [Compound 231] gave an IC50 below 1000 nM.
In assay [1], `CN(C)CCNC(=O)Nc1ccc(CCNc2ncnc3oc(-c4ccccc4)cc23)cc1` [Compound 233] returned an IC50 below 1000 nM.
In assay [1], `CN(C)CCNC(=O)Nc1ccc(CCNc2ncnc3oc(-c4ccccc4)c(Cl)c23)cc1` [Compound 234] gave an IC50 below 1000 nM.
As for `Cc1cc(NC(=O)Nc2ccc(CCNc3ncnc4oc(-c5ccccc5)c(-c5ccccc5)c34)cc2)n[nH]1` [Compound 238], the IC50 in assay [1] was below 1000 nM.
Take `CC(C)(C)OC(=O)N1CCN(CCCOc2ccc(-c3cc4c(NCCc5ccc(NC(=O)Nc6ccccc6)cc5)ncnc4o3)cc2)CC1` [Compound 242]: the IC50 in assay [1] was < 1000 nM and 45 to 400 nM.
